Experimental data reported in the supplement of paper PMC10331698.
± gives the standard deviation of the averaged measurements.

Key:
Experiment in all cases: level (log10 ratio to DMSO vehicle control); higher = higher biomarker level / cell amount than vehicle control
Conditions in all cases: in DMSO
[1] = compound: CCN(CCO)S(=O)(=O)C(F)(F)C(F)(F)C(F)(F)C(F)(F)C(F)(F)C(F)(F)C(F)(F)C(F)(F)F [N-Ethyl-N-(2-hydroxyethyl)perfluorooctanesulfonamide]
Experimental: (§1)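 BioMAP Diversity Plus panel of 12 human primary cell co-culture systems (3C, 4H, LPS, SAg, BT, BF4T, BE3C, CASM3C, HDF3CGF, KF3CT, MyoF, Mphg). Compounds were added 1 h before stimulation and left for 24 h (MyoF 48 h; BT 72 h for soluble read-outs or 6 d for IgG). Biomarkers were read by ELISA, cytotoxicity by SRB, PBMC viability and proliferation by Alamar Blue. Each well value was divided by the mean of 8 DMSO control wells on the same plate and log10 transformed; duplicate blinded samples were tested at 4 concentrations.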

[2] = compound: COC(=O)CCC(F)(F)C(F)(F)C(F)(F)C(F)(F)F [Methyl 2H,2H,3H,3H-perfluoroheptanoate]
Experimental: as §1

[3] = compound: NC(=O)C(F)(F)C(F)(F)C(F)(F)F [Heptafluorobutyramide]
Experimental: as §1

[4] = compound: O=C(O)C(F)(F)C(F)(F)C(F)(F)C(F)(F)C(F)(F)C(F)(F)C(F)(F)C(F)(F)C(F)(F)F [Perfluorodecanoic acid]
Experimental: as §1

[5] = compound: O=C(O)C(F)(F)C(F)(F)C(F)(F)C(F)(F)F [Perfluoropentanoic acid]
Experimental: as §1

[6] = compound: O=C(O)C(F)(F)OC(F)(F)C(F)(F)OC(F)(F)C(=O)O [Perfluoro-3,6-dioxaoctane-1,8-dioic acid]
Experimental: as §1

[7] = compound: OCC(F)(F)OC(F)(F)C(F)(F)OC(F)(F)CO [1H,1H,8H,8H-Perfluoro-3,6-dioxaoctane-1,8-diol]
Experimental: as §1

Row | Test System | level (log10) ([1]; 6700 nM) | level (log10) ([1]; 20000 nM) | level (log10) ([2]; 6700 nM) | level (log10) ([2]; 20000 nM) | level (log10) ([2]; 60000 nM) | level (log10) ([3]; 6700 nM) | level (log10) ([3]; 20000 nM) | level (log10) ([3]; 60000 nM) | level (log10) ([4]; 6700 nM) | level (log10) ([4]; 20000 nM) | level (log10) ([5]; 6700 nM) | level (log10) ([5]; 20000 nM) | level (log10) ([5]; 60000 nM) | level (log10) ([6]; 6700 nM) | level (log10) ([6]; 20000 nM) | level (log10) ([6]; 60000 nM) | level (log10) ([7]; 6700 nM) | level (log10) ([7]; 20000 nM) | level (log10) ([7]; 60000 nM)
1 | 4H:SRB | -0.016 ± 0.0057 | -0.0605 ± 0.029 | 0.0075 ± 0.022 | 0.006 ± 0.0057 | -0.017 ± 0.0099 | -0.0275 ± 0.026 | -0.0165 ± 0.0035 | -0.006 ± 0.018 | 0.003 ± 0.0099 | -0.0055 ± 0.00071 | -0.0125 ± 0.00071 | -0.0065 ± 0.016 | -0.0025 ± 0.021 | -0.0115 ± 0.0078 | -0.0115 ± 0.022 | -0.003 ± 0.027 | -0.014 ± 0.0099 | -0.0195 ± 0.015 | -0.047 ± 0.0071
2 | SAg:CD69 | -0.043 ± 0.016 | -0.085 ± 0.04 | -0.0375 ± 0.035 | -0.0225 ± 0.019 | -0.0085 ± 0.05 | 0.031 ± 0.034 | 0.02 ± 0.016 | 0.0165 ± 0.05 | -0.0335 ± 0.015 | -0.062 ± 0.0057 | 0.002 ± 0.016 | -0.0155 ± 0.028 | -0.0165 ± 0.033 | 0.0045 ± 0.0021 | 0.007 ± 0.0057 | 0 ± 0.0014 | 0.0065 ± 0.0064 | 0.015 ± 0.016 | -0.0145 ± 0.013
3 | LPS:CD62E/E-Selectin | 0.071 ± 0.02 | 0.073 ± 0.0042 | -0.0315 ± 0.0021 | -0.034 ± 0.0014 | 0.0015 ± 0.013 | -0.0065 ± 0.022 | -0.0195 ± 0.016 | -0.0365 ± 0.035 | -0.0115 ± 0.00071 | -0.0205 ± 0.015 | 0.01 ± 0.0057 | -0.004 ± 0.0071 | 0.015 ± 0.018 | 0.019 ± 0.013 | -0.0035 ± 0.0092 | -0.003 ± 0.0028 | -0.0065 ± 0.0078 | -0.0155 ± 0.015 | 0.003 ± 0.0057
4 | LPS:CXCL8/IL-8 | 0.039 ± 0.0042 | -0.003 ± 0.0028 | -0.0075 ± 0.023 | -0.016 ± 0.0071 | 0.022 ± 0.016 | -0.01 ± 0.038 | -0.0025 ± 0.032 | 0.0115 ± 0.0078 | 0.027 ± 0.0071 | 0.0115 ± 0.0064 | -0.0075 ± 0.00071 | -0.0095 ± 0.022 | 0.0245 ± 0.052 | 0.015 | 0.0085 ± 0.021 | 0.0385 ± 0.021 | 0.002 ± 0.0071 | 0.0075 ± 0.015 | 0.0075 ± 0.039
5 | BE3C:CXCL11/I-TAC | -0.006 ± 0.023 | -0.0035 ± 0.029 | -0.0175 ± 0.012 | -0.011 ± 0.018 | -0.0095 ± 0.00071 | -0.0035 ± 0.0064 | 0.005 ± 0.0042 | -0.0015 ± 0.00071 | -0.0405 ± 0.021 | -0.849 ± 0.028 | -0.0175 ± 0.012 | -0.015 ± 0.0028 | -0.005 ± 0.014 | -0.0145 ± 0.0021 | -0.015 ± 0.0042 | -0.006 ± 0.013 | 0.007 ± 0.0014 | 0.0185 ± 0.0021 | 0.009 ± 0.014
6 | BF4T:CD90 | -0.013 ± 0.0099 | -0.0145 ± 0.005 | -0.009 ± 0.011 | -0.0045 ± 0.0064 | -0.032 ± 0.013 | 0.002 ± 0.013 | -0.008 ± 0.0085 | 0.003 ± 0.0042 | 0.003 ± 0.0042 | -0.0955 ± 0.0064 | -0.02 ± 0.0085 | -0.0105 ± 0.005 | -0.0025 ± 0.025 | -0.012 ± 0.0028 | -0.0085 ± 0.005 | -0.004 ± 0.0028 | -0.008 ± 0.027 | -0.008 ± 0.011 | -0.0015 ± 0.011
7 | LPS:SRB | -0.0345 ± 0.0035 | -0.084 ± 0.02 | 0.006 ± 0.023 | 0.001 ± 0.011 | -0.0045 ± 0.011 | -0.0115 ± 0.015 | -0.009 ± 0.0071 | -0.002 ± 0.0071 | 0.01 ± 0.0071 | 0.003 ± 0.0042 | 0.0015 ± 0.0078 | 0.004 | 0.003 ± 0.0085 | 0.007 ± 0.011 | 0.005 ± 0.021 | 0.0115 ± 0.025 | -0.0075 ± 0.012 | -0.0125 ± 0.0092 | -0.0205 ± 0.005
8 | SAg:CD38 | -0.027 ± 0.017 | -0.0955 ± 0.012 | -0.018 ± 0.017 | -0.0015 ± 0.018 | -0.009 ± 0.0028 | -0.0315 ± 0.029 | -0.03 ± 0.016 | -0.021 ± 0.021 | -0.009 ± 0.0014 | -0.017 ± 0.0057 | 0.003 ± 0.017 | 0.0015 ± 0.011 | 0.002 ± 0.0057 | -0.001 | 0.0015 ± 0.0021 | 0.0055 ± 0.0021 | -0.006 ± 0.02 | -0.0105 ± 0.013 | -0.0015 ± 0.0021
